# Data as given in PubChem BioAssay AID284 (DTP/NCI, 2004).
# Values joined by “and” are separate entries in the source; they are usually repeats but may differ in a detail not shown here. Equal values may be shown once. Inconclusive results and toxic doses are left out.
# Test system: BDF1 mice, L1210/MTX-resistant leukemia ip, survival T/C
# Assay: NCI In Vivo Anticancer Drug Screen. Data for tumor model L1210 Leukemia resistant to Methotrexate; NSC 740 (intraperitoneal) in B6D2F1 (BDF1) mice
# Conditions: endpoint: mean survival time, higher = longer survival
# Method: The antitumor activity of compounds was measured in mice bearing transplantable tumors. Survival or tumor size were measured and the results are expressed as the measurement made in the treated group (T) divided by the measurement made in the vehicle treated control group (C). The tumor model used in this assay is L1210 Leukemia resistant to Methotrexate; NSC 740 (intraperitoneal) in B6D2F1 (BDF1) mice
smiles,measurement,setting,value
Nc1nc(F)nc2c1ncn2C1OC(CO)C(O)C1O (stereo not drawn),T/C,"dose: 0.25 mg/kg/injection, schedule: Q01DX Z (ip), vehicle: saline",122 % of control
same,T/C,"dose: 0.75 mg/kg/injection, schedule: Q01DX Z (ip), vehicle: saline",115 % of control
same,T/C,"dose: 1.5 mg/kg/injection, schedule: Q01DX Z (ip), vehicle: saline",108 % of control
same,T/C,"dose: 3.0 mg/kg/injection, schedule: Q01DX Z (ip), vehicle: saline",104 % of control
same,T/C,"dose: 6.0 mg/kg/injection, schedule: Q01DX Z (ip), vehicle: saline",86 % of control
same,T/C,"dose: 25.0 micrograms/kg/injection, schedule: Q01DX Z (ip), vehicle: saline",91 % of control
same,T/C,"dose: 50.0 micrograms/kg/injection, schedule: Q01DX Z (ip), vehicle: saline",92 % of control
same,T/C,"dose: 100.0 micrograms/kg/injection, schedule: Q01DX Z (ip), vehicle: saline",100 % of control
same,T/C,"dose: 210.0 micrograms/kg/injection, schedule: Q01DX Z (ip), vehicle: saline",86 % of control
CS(=O)(=O)OCCCl,T/C,"dose: 7.5 mg/kg/injection, schedule: Q01DX Z (ip), vehicle: saline",107 % of control
same,T/C,"dose: 10.0 mg/kg/injection, schedule: Q01DX Z (ip), vehicle: saline",111 % of control
same,T/C,"dose: 15.0 mg/kg/injection, schedule: Q01DX Z (ip), vehicle: saline",109 % of control
same,T/C,"dose: 20.0 mg/kg/injection, schedule: Q01DX Z (ip), vehicle: saline",111 % of control
same,T/C,"dose: 50.0 mg/kg/injection, schedule: Q01DX Z (ip), vehicle: saline",86 % of control
NC(=O)N(CCCl)N=O,T/C,"dose: 0.5 mg/kg/injection, schedule: Q01DX010 (ip), vehicle: saline",158 % of control
same,T/C,"dose: 4.0 mg/kg/injection, schedule: Q01DX010 (ip), vehicle: saline",104 % of control
CC[C@]1(O)C[C@H]2CN(CCc3c([nH]c4ccccc34)[C@@](C(=O)OC)(c3cc4c(cc3OC)N(C=O)[C@H]3[C@@](O)(C(=O)OC)[C@H](OC(C)=O)[C@]5(CC)C=CCN6CC[C@]43[C@@H]65)C2)C1,T/C,"dose: 0.03 mg/kg/injection, schedule: Q01DX010 (ip), vehicle: saline",94 % of control
same,T/C,"dose: 0.06 mg/kg/injection, schedule: Q01DX010 (ip), vehicle: saline",106 % of control
same,T/C,"dose: 0.12 mg/kg/injection, schedule: Q01DX010 (ip), vehicle: saline",95 % of control
same,T/C,"dose: 0.25 mg/kg/injection, schedule: Q01DX010 (ip), vehicle: saline",89 % of control
CN(C)CC(=O)c1ccc(O)c(O)c1,T/C,"dose: 200.0 mg/kg/injection, schedule: Q01DX010 (ip), vehicle: saline",117 % of control
same,T/C,"dose: 300.0 mg/kg/injection, schedule: Q01DX010 (ip), vehicle: saline",109 % of control
same,T/C,"dose: 450.0 mg/kg/injection, schedule: Q01DX010 (ip), vehicle: saline",104 % of control
same,T/C,"dose: 675.0 mg/kg/injection, schedule: Q01DX010 (ip), vehicle: saline",111 % of control
C[N+](C)(C)c1ncnc2nc[nH]c12,T/C,"dose: 15.0 mg/kg/injection, schedule: Q01DX010 (ip), vehicle: saline",94 % of control
CC(=O)N(C)C,T/C,"dose: 62.5 mg/kg/injection, schedule: Q01DX010 (ip), vehicle: saline",90 % of control and 98 % of control
same,T/C,"dose: 62.5 mg/kg/injection, schedule: Q01DX Z (ip), vehicle: saline",106 % of control
same,T/C,"dose: 125.0 mg/kg/injection, schedule: Q01DX010 (ip), vehicle: saline",102 % of control
same,T/C,"dose: 125.0 mg/kg/injection, schedule: Q01DX Z (ip), vehicle: saline",122 % of control
same,T/C,"dose: 250.0 mg/kg/injection, schedule: Q01DX010 (ip), vehicle: saline",93 % of control and 100 % of control
same,T/C,"dose: 500.0 mg/kg/injection, schedule: Q01DX010 (ip), vehicle: saline",93 % of control
same,T/C,"dose: 500.0 mg/kg/injection, schedule: Q01DX Z (ip), vehicle: saline",114 % of control and 88 % of control
same,T/C,"dose: 750.0 mg/kg/injection, schedule: Q01DX Z (ip), vehicle: saline",88 % of control
same,T/C,"dose: 1000.0 mg/kg/injection, schedule: Q01DX Z (ip), vehicle: methylcellulose (MC)",87 % of control
CN(C)/N=N/c1nc[nH]c1C(N)=O,T/C,"dose: 12.5 mg/kg/injection, schedule: Q01DX010 (ip), vehicle: saline",108 % of control
same,T/C,"dose: 25.0 mg/kg/injection, schedule: Q01DX010 (ip), vehicle: saline",118 % of control
same,T/C,"dose: 50.0 mg/kg/injection, schedule: Q01DX010 (ip), vehicle: saline",119 % of control
same,T/C,"dose: 100.0 mg/kg/injection, schedule: Q01DX010 (ip), vehicle: saline",118 % of control
